Assay results published in EP4722207A1, “OXOISOINDOLINYL-SUBSTITUTED TETRAHYDROPYRIMIDINEDIONE DERIVATIVE AND USE THEREOF” (Gluetacs Therapeutics (Shanghai) Co., Ltd., priority 2023, dated 2024).

Key:
WEE1 = target: T1, WEE1 (Homo sapiens, UniProt P30291+Q96SW2); experiment: Western-blot assay, substrate protein degradation in hPBMCs: WEE1; type: cell-based; details: for WEE1 substrate protein remaining %: compounds at 50 nM and 500 nM, 24 hours; for substrate protein remaining % WEE1: 24 hours of compound treatment, 50 nM and 500 nM
T1 construct: effects of the compounds of the present disclosure on the expression of target proteins in cells; endogenous in cells; host or cells: human PBMCs (hPBMCs)

IKZF1 = target: T2, IKZF1 (Homo sapiens, UniProt Q13422+Q96SW2); experiment: Western-blot assay, substrate protein degradation in hPBMCs: IKZF1; type: cell-based; details: for IKZF1 substrate protein remaining %: compounds at 50 nM and 500 nM, 24 hours; for substrate protein remaining % IKZF1: 24 hours of compound treatment, 50 nM and 500 nM
T2 construct: effects of the compounds of the present disclosure on the expression of target proteins in cells; endogenous in cells; host or cells: human PBMCs (hPBMCs)

IKZF2 = target: T3, IKZF2 (Homo sapiens, UniProt Q96SW2+Q9UKS7); experiment: Western-blot assay, substrate protein degradation in hPBMCs: IKZF2; type: cell-based; details: for IKZF2 substrate protein remaining %: compounds at 50 nM and 500 nM, 24 hours; for substrate protein remaining % IKZF2: 24 hours of compound treatment, 50 nM and 500 nM
T3 construct: effects of the compounds of the present disclosure on the expression of target proteins in cells; endogenous in cells; host or cells: human PBMCs (hPBMCs)

IKZF3 = target: T4, IKZF3 (Homo sapiens, UniProt Q96SW2+Q9UKT9); experiment: Western-blot assay, substrate protein degradation in hPBMCs: IKZF3; type: cell-based; details: for IKZF3 substrate protein remaining %: compounds at 50 nM and 500 nM, 24 hours; for substrate protein remaining % IKZF3: 24 hours of compound treatment, 50 nM and 500 nM
T4 construct: effects of the compounds of the present disclosure on the expression of target proteins in cells; endogenous in cells; host or cells: human PBMCs (hPBMCs)

CK1α = target: T5, CK1α (Homo sapiens, UniProt P48729+Q96SW2); experiment: Western-blot assay, substrate protein degradation in hPBMCs: CK1α; type: cell-based; details: for CK1α substrate protein remaining %: compounds at 50 nM and 500 nM, 24 hours; for substrate protein remaining % CK1α: 24 hours of compound treatment, 50 nM and 500 nM
T5 construct: effects of the compounds of the present disclosure on the expression of target proteins in cells; endogenous in cells; host or cells: human PBMCs (hPBMCs)

GSPT1 = target: T6, GSPT1 (Homo sapiens, UniProt P15170+Q96SW2); experiment: Western-blot assay, substrate protein degradation in hPBMCs: GSPT1; type: cell-based; details: for GSPT1 substrate protein remaining %: compounds at 50 nM and 500 nM, 24 hours; for substrate protein remaining % GSPT1: 24 hours of compound treatment, 50 nM and 500 nM
T6 construct: effects of the compounds of the present disclosure on the expression of target proteins in cells; endogenous in cells; host or cells: human PBMCs (hPBMCs)

MM.1S = experiment: Cell viability assay (CellTiter-Meiluncell Luminescent), tumor cell proliferation, MM.1S; details: Homo sapiens, MM1.S, 96 h; for IC50: read-out: inhibitory activity (IC50, nM) against tumor cells proliferation, MM.1S; for inhibition at 0.01 µM: read-out: Inhibition Rate at 10 nM (%); for inhibition at 0.5 µM: read-out: Inhibition Rate at 500 nM (%)
MGC803 = experiment: Cell viability assay (CellTiter-Meiluncell Luminescent), tumor cell proliferation, MGC803; details: Homo sapiens, MGC-803, 96 h, read-out: inhibitory activity (IC50, nM) against tumor cells proliferation, MGC803
Method: On the following day, the test compounds of the present disclosure were subjected to serial dilution. […] Subsequently, 0.5 µL of the test compound dilution was transferred into the 96-well plate containing the cells, with each well containing 100 µL of cell culture medium. […] Into the 96-well plate, the diluted test compounds and corresponding detection reagents were added, resulting in final test compound concentrations of 500 nM and 10 nM, respectively.
After the cells were treated with the compounds of the present disclosure for a specified period, the cell viability assay reagent was added to the culture medium according to the kit's instructions to determine cell viability. […] All controls were treated using the same procedure as the compounds of the present disclosure. The growth inhibition curves for the compounds of the present disclosure were plotted using Prism GraphPad software, and the IC50 values were calculated therefrom.

[1] = target: T7, human Cereblon WT GST-tagged protein (Homo sapiens, UniProt Q96SW2); experiment: CRBN-binding affinity, CEREBLON BINDING kit (HTRF); details: for inhibition at 0.5 µM: read-out: Inhibition Rate at 0.5 µM (%); for inhibition at 2 µM: read-out: Inhibition Rate at 2 µM (%)
T7 construct: purchased CISBIO 64BDCRBNPEH
Excerpt: The CEREBLON BINDING kits (specification: 10,000 tests; product number: Catalog # 64BDCRBNPEH; CISBIO company) was used to determine the CRBN binding ability of the compounds to be tested through a HTRF method (homogeneous time-resolved fluorescence). The specific methods are as follows: • 1. […] Specifically, diluent #9 (1X) solution was used as the diluent, and multiple concentration gradients were set. […] Into the 96-well plate, the diluted test compounds and corresponding detection reagents were added, resulting in final test compound concentrations of 2 µM and 0.5 µM, respectively. […] Then, 2.5 µL of human Cereblon WT GST-tagged protein solution was added to each well. Finally, 5 µL of the thoroughly mixed Thalidomide-Re reagent and GST Eu antibody working solution were added to each of the aforementioned wells. […] The blank control wells were sequentially added with 2.5 µL of diluent #9 (1X) solution, 2.5 µL of binding buffer, and 5 µL of thoroughly mixed Thalidomide-Re reagent and GST Eu antibody working solution. • 4. […] OD 620 nm control is the absorbance value of the blank control well at an emission wavelength of 620 nm. […] OD 620 nm Std0 is the absorbance value of the solvent control well at an emission wavelength of 620 nm.

H292 = experiment: Cell viability assay (CellTiter-Meiluncell Luminescent), tumor cell proliferation, H292; details: Homo sapiens, NCI-H292, 96 h; for inhibition at 0.01 µM: read-out: Inhibition Rate at 10 nM (%); for inhibition at 0.5 µM: read-out: Inhibition Rate at 500 nM (%)
H2228 = experiment: Cell viability assay (CellTiter-Meiluncell Luminescent), tumor cell proliferation, H2228; details: Homo sapiens, NCI-H2228, 96 h; for inhibition at 0.01 µM: read-out: Inhibition Rate at 10 nM (%); for inhibition at 0.5 µM: read-out: Inhibition Rate at 500 nM (%)
MV-4-11 = experiment: Cell viability assay (CellTiter-Meiluncell Luminescent), tumor cell proliferation, MV-4-11; details: Homo sapiens, MV4-11, 96 h; for inhibition at 0.01 µM: read-out: Inhibition Rate at 10 nM (%); for inhibition at 0.5 µM: read-out: Inhibition Rate at 500 nM (%)
MDA-MB-231 = experiment: Cell viability assay (CellTiter-Meiluncell Luminescent), tumor cell proliferation, MDA-MB-231; details: Homo sapiens, MDA-MB-231, 96 h; for inhibition at 0.01 µM: read-out: Inhibition Rate at 10 nM (%); for inhibition at 0.5 µM: read-out: Inhibition Rate at 500 nM (%)

T7 sequence (Q96SW2 whole entry): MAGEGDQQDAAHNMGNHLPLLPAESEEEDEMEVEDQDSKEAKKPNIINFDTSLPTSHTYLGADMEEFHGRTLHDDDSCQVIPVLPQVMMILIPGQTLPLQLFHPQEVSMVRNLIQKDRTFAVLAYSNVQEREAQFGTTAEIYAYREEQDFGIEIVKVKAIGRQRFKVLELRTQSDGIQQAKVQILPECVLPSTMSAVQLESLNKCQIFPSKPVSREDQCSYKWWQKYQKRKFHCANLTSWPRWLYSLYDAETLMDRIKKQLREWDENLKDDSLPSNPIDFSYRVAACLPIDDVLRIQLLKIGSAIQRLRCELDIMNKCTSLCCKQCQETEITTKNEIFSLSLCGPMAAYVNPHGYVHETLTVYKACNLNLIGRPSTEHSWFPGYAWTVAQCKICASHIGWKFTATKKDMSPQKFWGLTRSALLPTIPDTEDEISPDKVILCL
T6 sequence (P15170 whole entry): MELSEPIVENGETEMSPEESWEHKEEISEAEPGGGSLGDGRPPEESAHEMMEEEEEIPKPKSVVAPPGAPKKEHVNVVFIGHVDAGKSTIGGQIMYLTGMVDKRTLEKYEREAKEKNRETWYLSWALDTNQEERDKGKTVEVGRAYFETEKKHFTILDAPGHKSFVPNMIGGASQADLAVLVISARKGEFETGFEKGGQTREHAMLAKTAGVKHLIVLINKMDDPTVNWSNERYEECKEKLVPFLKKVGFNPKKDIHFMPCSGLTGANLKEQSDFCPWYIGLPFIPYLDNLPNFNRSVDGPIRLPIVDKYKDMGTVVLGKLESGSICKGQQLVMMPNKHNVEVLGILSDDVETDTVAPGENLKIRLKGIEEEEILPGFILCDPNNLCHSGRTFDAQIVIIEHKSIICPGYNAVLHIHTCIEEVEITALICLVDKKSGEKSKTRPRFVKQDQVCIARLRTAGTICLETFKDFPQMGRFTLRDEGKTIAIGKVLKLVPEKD
T6 sequence (Q96SW2 whole entry): as the sequence (Q96SW2 whole entry) above
T6 sequence (Q16531 whole entry partner): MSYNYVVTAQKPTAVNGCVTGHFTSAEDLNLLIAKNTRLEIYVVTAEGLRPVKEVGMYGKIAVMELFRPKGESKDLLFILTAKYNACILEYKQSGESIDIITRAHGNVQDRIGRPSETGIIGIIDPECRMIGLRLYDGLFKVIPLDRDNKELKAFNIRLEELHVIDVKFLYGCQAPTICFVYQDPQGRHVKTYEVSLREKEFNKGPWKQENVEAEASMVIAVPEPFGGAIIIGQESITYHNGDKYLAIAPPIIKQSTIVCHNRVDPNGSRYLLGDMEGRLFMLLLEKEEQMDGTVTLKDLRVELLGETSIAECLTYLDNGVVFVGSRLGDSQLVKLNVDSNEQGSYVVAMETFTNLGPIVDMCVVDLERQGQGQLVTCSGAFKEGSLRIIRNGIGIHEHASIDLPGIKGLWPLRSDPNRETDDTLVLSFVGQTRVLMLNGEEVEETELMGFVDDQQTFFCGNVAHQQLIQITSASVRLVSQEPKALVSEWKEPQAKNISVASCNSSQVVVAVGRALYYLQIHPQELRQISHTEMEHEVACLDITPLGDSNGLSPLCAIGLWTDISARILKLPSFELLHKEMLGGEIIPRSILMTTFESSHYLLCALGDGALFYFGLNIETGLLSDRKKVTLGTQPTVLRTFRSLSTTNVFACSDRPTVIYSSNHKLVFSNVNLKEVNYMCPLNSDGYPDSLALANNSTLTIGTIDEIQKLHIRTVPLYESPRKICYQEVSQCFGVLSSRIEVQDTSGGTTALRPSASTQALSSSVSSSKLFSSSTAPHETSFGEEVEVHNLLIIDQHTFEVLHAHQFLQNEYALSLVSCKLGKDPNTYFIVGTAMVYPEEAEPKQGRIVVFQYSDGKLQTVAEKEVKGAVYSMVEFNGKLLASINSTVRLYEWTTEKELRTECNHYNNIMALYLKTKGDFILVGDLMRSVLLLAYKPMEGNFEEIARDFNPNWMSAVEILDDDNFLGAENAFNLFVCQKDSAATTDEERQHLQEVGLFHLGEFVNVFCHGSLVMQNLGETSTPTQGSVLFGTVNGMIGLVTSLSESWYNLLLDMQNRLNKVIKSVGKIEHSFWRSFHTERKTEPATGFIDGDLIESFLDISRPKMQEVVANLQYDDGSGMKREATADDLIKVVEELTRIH
T5 sequence (P48729 whole entry): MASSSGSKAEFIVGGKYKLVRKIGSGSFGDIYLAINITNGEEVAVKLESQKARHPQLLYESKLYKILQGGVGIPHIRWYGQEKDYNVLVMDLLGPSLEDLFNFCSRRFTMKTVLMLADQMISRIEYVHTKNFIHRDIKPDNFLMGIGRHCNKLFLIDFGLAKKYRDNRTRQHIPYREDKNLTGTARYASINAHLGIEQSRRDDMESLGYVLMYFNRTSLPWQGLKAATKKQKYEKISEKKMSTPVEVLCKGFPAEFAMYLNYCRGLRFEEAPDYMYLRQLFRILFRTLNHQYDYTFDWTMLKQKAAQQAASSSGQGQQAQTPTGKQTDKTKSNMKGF
T5 sequence (Q96SW2 whole entry): as the sequence (Q96SW2 whole entry) above
T5 sequence (Q16531 whole entry partner): as the sequence (Q16531 whole entry partner) above
T3 sequence (Q9UKS7 whole entry): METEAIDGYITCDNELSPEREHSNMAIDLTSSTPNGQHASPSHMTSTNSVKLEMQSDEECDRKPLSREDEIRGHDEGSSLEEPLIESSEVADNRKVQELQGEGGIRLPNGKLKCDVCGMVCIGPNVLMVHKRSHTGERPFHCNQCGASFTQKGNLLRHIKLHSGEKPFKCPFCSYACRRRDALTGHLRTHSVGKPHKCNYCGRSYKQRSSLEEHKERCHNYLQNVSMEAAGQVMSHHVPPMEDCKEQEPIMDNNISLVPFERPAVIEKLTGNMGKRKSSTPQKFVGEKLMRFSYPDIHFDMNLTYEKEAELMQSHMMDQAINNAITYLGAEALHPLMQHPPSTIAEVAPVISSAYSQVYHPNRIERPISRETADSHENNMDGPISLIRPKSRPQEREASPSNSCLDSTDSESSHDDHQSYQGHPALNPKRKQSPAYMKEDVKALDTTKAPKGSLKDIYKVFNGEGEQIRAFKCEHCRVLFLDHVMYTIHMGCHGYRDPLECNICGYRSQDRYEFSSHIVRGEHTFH
T3 sequence (Q96SW2 whole entry): as the sequence (Q96SW2 whole entry) above
T3 sequence (Q16531 whole entry partner): as the sequence (Q16531 whole entry partner) above
T1 sequence (P30291 whole entry): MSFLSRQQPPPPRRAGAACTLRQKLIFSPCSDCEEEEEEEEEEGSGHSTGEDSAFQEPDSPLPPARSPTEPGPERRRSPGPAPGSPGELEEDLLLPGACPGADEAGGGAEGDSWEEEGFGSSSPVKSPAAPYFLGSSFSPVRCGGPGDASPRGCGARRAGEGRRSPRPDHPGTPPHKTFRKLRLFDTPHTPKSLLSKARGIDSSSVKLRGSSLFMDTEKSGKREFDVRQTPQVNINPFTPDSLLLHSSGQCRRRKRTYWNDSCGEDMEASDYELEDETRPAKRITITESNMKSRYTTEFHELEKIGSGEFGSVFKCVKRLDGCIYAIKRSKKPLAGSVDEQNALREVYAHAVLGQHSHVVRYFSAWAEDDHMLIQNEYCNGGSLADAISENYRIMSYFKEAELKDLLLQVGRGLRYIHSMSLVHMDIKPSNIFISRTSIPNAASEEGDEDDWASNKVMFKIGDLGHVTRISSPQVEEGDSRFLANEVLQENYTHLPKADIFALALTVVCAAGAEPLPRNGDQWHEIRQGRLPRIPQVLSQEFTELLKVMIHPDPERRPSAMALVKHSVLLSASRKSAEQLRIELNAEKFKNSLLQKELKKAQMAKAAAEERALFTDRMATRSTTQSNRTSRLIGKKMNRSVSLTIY
T1 sequence (Q96SW2 whole entry): as the sequence (Q96SW2 whole entry) above
T1 sequence (Q16531 whole entry partner): as the sequence (Q16531 whole entry partner) above
T2 sequence (Q13422 whole entry): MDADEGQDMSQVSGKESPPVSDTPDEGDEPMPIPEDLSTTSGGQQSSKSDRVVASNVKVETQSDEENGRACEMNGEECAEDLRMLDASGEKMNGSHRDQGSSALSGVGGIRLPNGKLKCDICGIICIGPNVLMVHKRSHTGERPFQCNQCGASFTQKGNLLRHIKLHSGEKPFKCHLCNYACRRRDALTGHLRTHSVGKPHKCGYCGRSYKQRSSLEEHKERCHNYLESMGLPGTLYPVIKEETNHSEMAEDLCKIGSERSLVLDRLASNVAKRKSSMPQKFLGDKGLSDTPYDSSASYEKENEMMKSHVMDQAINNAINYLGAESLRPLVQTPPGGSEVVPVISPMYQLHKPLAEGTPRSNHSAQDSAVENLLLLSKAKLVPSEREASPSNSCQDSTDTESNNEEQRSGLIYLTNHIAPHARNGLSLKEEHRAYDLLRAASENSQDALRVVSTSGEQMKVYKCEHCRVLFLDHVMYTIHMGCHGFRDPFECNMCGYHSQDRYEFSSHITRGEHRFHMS
T2 sequence (Q96SW2 whole entry): as the sequence (Q96SW2 whole entry) above
T2 sequence (Q16531 whole entry partner): as the sequence (Q16531 whole entry partner) above

Row | Compound | inhibition at 0.5 µM [1] [%] | inhibition at 2 µM [1] [%] | substrate protein remaining % WEE1 (WEE1) | substrate protein remaining % IKZF1 (IKZF1) | substrate protein remaining % IKZF2 (IKZF2) | substrate protein remaining % IKZF3 (IKZF3) | substrate protein remaining % CK1α (CK1α) | substrate protein remaining % GSPT1 (GSPT1) | inhibition at 0.01 µM (H292) [%] | inhibition at 0.5 µM (H292) [%] | inhibition at 0.01 µM (H2228) [%] | inhibition at 0.5 µM (H2228) [%] | inhibition at 0.01 µM (MV-4-11) [%] | inhibition at 0.5 µM (MV-4-11) [%] | inhibition at 0.01 µM (MDA-MB-231) [%] | inhibition at 0.5 µM (MDA-MB-231) [%] | also measured
1 | O=C1CCN(N2Cc3cc(CN4CCN(c5cccc(Cl)c5Cl)CC4)ccc3C2=O)C(=O)N1 [GT-04853, 1-(5-((4-(2,3-dichlorophenyl)piperazin-1-yl)methyl)-1-oxoisoindolin-2-yl)dihydropyrimidine-2,4(1H,3H)-dione] | – | – | – | – | – | – | – | – | – | – | – | – | – | – | – | – | WEE1 substrate protein remaining % (WEE1): A ("A" is defined as 0% ≤ substrate protein remaining % ≤ 80%); IKZF1 substrate protein remaining % (IKZF1): A ("A" is defined as 0% ≤ substrate protein remaining % ≤ 80%); IKZF2 substrate protein remaining % (IKZF2): A ("A" is defined as 0% ≤ substrate protein remaining % ≤ 80%); IKZF3 substrate protein remaining % (IKZF3): B ("B" is defined as 80%< substrate protein remaining %≤ 100%); CK1α substrate protein remaining % (CK1α): B ("B" is defined as 80%< substrate protein remaining %≤ 100%); GSPT1 substrate protein remaining % (GSPT1): A ("A" is defined as 0% ≤ substrate protein remaining % ≤ 80%); IC50 (MM.1S): 100 to 300 nM; IC50 (MGC803): 500 to 1000 nM
2 | O=C1CCN(N2Cc3cc(CN4CCN(C(c5ccccc5)c5ccccn5)CC4)ccc3C2=O)C(=O)N1 (stereo not shown) [GT-04890, 1-(1-oxo-5-((4-(phenyl(pyridin-2-yl)methyl)piperazin-1-yl)methyl)isoindolin-2-yl)dihydropyrimidine-2,4(1H,3H)-dione] | – | – | – | – | – | – | – | – | – | – | – | – | – | – | – | – | WEE1 substrate protein remaining % (WEE1): B ("B" is defined as 80%< substrate protein remaining %≤ 100%); IKZF1 substrate protein remaining % (IKZF1): A ("A" is defined as 0% ≤ substrate protein remaining % ≤ 80%); IKZF2 substrate protein remaining % (IKZF2): A ("A" is defined as 0% ≤ substrate protein remaining % ≤ 80%); IKZF3 substrate protein remaining % (IKZF3): B ("B" is defined as 80%< substrate protein remaining %≤ 100%); CK1α substrate protein remaining % (CK1α): B ("B" is defined as 80%< substrate protein remaining %≤ 100%); GSPT1 substrate protein remaining % (GSPT1): A ("A" is defined as 0% ≤ substrate protein remaining % ≤ 80%); IC50 (MM.1S): 100 to 300 nM; IC50 (MGC803): 500 to 1000 nM
3 | O=C1CCN(N2Cc3cc(CN4CCN(c5ncnc6scc(-c7ccccc7)c56)CC4)ccc3C2=O)C(=O)N1 [GT-08065, 1-(1-oxo-5-((4-(5-phenylthieno[2,3-d]pyrimidin-4-yl)piperazin-1-yl)methyl)isoindolin-2-yl)dihydropyrimidine-2,4(1H,3H)-dione] | 20 to 30 | 60 to 80 | B (80%< substrate protein remaining %≤ 100%) | B (80%< substrate protein remaining %≤ 100%) | A (0% ≤ substrate protein remaining % ≤ 80%) | B (80%< substrate protein remaining %≤ 100%) | B (80%< substrate protein remaining %≤ 100%) | B (80%< substrate protein remaining %≤ 100%) | 20 to 40 | 20 to 40 | 20 to 25 | 25 to 30 | 30 to 40 | 10 to 18 | – | – | inhibition at 0.01 µM (MM.1S): 20 to 30%; inhibition at 0.5 µM (MM.1S): 20 to 30%
4 | O=C1CCN(N2Cc3cc(CN4CC=C(c5ncnc6sc(-c7ccccc7)cc56)CC4)ccc3C2=O)C(=O)N1 [GT-08173, 1-(1-oxo-5-((4-(6-phenylthieno[2,3-d]pyrimidin-4-yl)-3,6-dihydropyridin-1(2H)-yl)methyl)isoindolin-2-yl)dihydropyrimidine-2,4(1H,3H)-dione] | 20 to 30 | 53 to 60 | – | – | – | – | – | – | – | – | 5 to 10 | 40 to 60 | 10 to 18 | 80 to 100 | 10 to 15 | 60 to 80 | inhibition at 0.01 µM (MM.1S): -5 to 0%; inhibition at 0.5 µM (MM.1S): 80 to 100%
5 | O=C1CCN(N2Cc3cc(CN4CC=C(c5ncnc6scc(-c7ccccc7)c56)CC4)ccc3C2=O)C(=O)N1 [GT-08174, 1-(1-oxo-5-((4-(5-phenylthieno[2,3-d]pyrimidin-4-yl)-3,6-dihydropyridin-1(2H)-yl)methyl)isoindolin-2-yl)dihydropyrimidine-2,4(1H,3H)-dione] | 20 to 30 | 53 to 60 | – | – | – | – | – | – | 10 to 15 | 20 to 40 | 15 to 20 | 20 to 25 | 25 to 30 | 10 to 18 | 18 to 25 | 25 to 40 | –

Now from value to molecule, other results behind:

Row | inhibition at 0.5 µM [1] [%] | inhibition at 2 µM [1] [%] | Compound | substrate protein remaining % WEE1 (WEE1) | substrate protein remaining % IKZF1 (IKZF1) | substrate protein remaining % IKZF2 (IKZF2) | substrate protein remaining % IKZF3 (IKZF3) | substrate protein remaining % CK1α (CK1α) | substrate protein remaining % GSPT1 (GSPT1) | inhibition at 0.01 µM (H292) [%] | inhibition at 0.5 µM (H292) [%] | inhibition at 0.01 µM (H2228) [%] | inhibition at 0.5 µM (H2228) [%] | inhibition at 0.01 µM (MV-4-11) [%] | inhibition at 0.5 µM (MV-4-11) [%] | inhibition at 0.01 µM (MDA-MB-231) [%] | inhibition at 0.5 µM (MDA-MB-231) [%] | also measured
6 | 20 to 30 | 53 to 60 | O=C1CCN(N2Cc3cc(CN4CCN(c5ncnc6sc7c(c56)CCC7)CC4)ccc3C2=O)C(=O)N1 [GT-08079, 1-(5-((4-(6,7-dihydro-5H-cyclopenta[4,5]thieno[2,3-d]pyrimidin-4-yl)piperazin-1-yl)methyl)-1-oxoisoindolin-2-yl)dihydropyrimidine-2,4(1H,3H)-dione] | A (0% ≤ substrate protein remaining % ≤ 80%) | B (80%< substrate protein remaining %≤ 100%) | B (80%< substrate protein remaining %≤ 100%) | B (80%< substrate protein remaining %≤ 100%) | A (0% ≤ substrate protein remaining % ≤ 80%) | A (0% ≤ substrate protein remaining % ≤ 80%) | 20 to 40 | 20 to 40 | 15 to 20 | 20 to 25 | 40 to 60 | 40 to 60 | 18 to 25 | 10 to 15 | –
7 | 20 to 30 | 53 to 60 | Cc1nc(N2CCN(Cc3ccc4c(c3)CN(N3CCC(=O)NC3=O)C4=O)CC2)c2c3c(sc2n1)CCC3 [GT-08080, 1-(5-((4-(2-methyl-6,7-dihydro-5H-cyclopenta[4,5]thieno[2,3-d]pyrimidin-4-yl)piperazin-1-yl)methyl)-1-oxoisoindolin-2-yl)dihydropyrimidine-2,4(1H,3H)-dione] | A (0% ≤ substrate protein remaining % ≤ 80%) | B (80%< substrate protein remaining %≤ 100%) | B (80%< substrate protein remaining %≤ 100%) | B (80%< substrate protein remaining %≤ 100%) | A (0% ≤ substrate protein remaining % ≤ 80%) | A (0% ≤ substrate protein remaining % ≤ 80%) | 40 to 60 | 20 to 40 | 30 to 40 | 20 to 25 | – | – | 18 to 25 | 15 to 18 | –
